Seven compounds from patent EP0333028A1, “1-Substituted 4-pentafluorophenoxypiperidines, a process for their preparation and their use as medicaments” (HOECHST-ROUSSEL PHARMACEUTICALS INCORPORATED, priority 1988, dated 1989) can be followed below.

Format in all cases: in vivo
For assay [1], the system named is male mice (Charles River, CD-1). The assay can be described thus: tetrabenazine induced ptosis assay (TBZ). The note with it: Mus musculus, ip, 50% inhibition of tetrabenazine-induced ptosis, read-out: Antidepressant Activity TBZ ED₅₀. The protocol:
The compounds of this invention are also useful as antidepressants by virtue of their ability to elicit an antidepressant response in mammals. […] In the tetrabenazine induced ptosis assay, male mice (Charles River, CD-1), weighing 20 to 39 g, are used in test groups of five animals. Test compounds are dissolved, or suspended with 1 drop of Tween-80, in distilled water and administered to the animals in volumes of 10 cc per kg of body weight. Tetrabenazine methanesulfonate (76.78% as the free base) is dissolved in distilled water and the concentration of the solution is adjusted so that the dose, administered intraperitoneally (i.p.) to the animals, is 40 mg of tetrabenazine base per kg of animal body weight. The test compound is administered intraperitoneally (i.p.) or perorally (p.o.) to the subject animals, and the tetrabenazine solution is administered 30 minutes or 60 minutes, respectively, thereafter. […] The subject animals are placed in individual plastic containers of the size 26.7 cm x 20.3 cm x 15.2 cm (10.1/2" x 8" x 6") thirty (i.p.) and sixty minutes (p.o.) after administration of the tetrabenazine solution, and one minute thereafter, the animals scored for ptosis on the following scale: [table] […] The results are discarded and the test is repeated, if the control score is determined to be less than 17. […]

The test system is the same in assay [2]. In words: Metrazol lethality assay (MTZ). The note with it: Mus musculus, po, protection against Metrazol lethality, read-out: Anticonvulsant Activity MTZ ED₅₀. As to the method:
(§1) The compounds of this invention are useful as anticonvulsants due to their anticonvulsant activity in mammals. Anticonvulsant activity is measured in male mice using the supramaximal electroshock (SES) assay described in Arch. Int. Pharmacodyn. 92, pp. 97-107, (1952) and the metrazol lethality assay (MTZ) described in J. Pharmacol. Exp. Ther., 81, 402 (1944).
Groups of male mice (Charles River, CD-1), weighing 18 to 30 grams are employed in the Metrazol lethality assay. Test compounds are dissolved in distilled water or if insoluble, suspended in water, to which a surfactant, such as Tween-80 is added. The test compounds are administered orally, the administered dose being dissolved or suspended in 10 ml of solution or suspension per kg of animal body weight. Control aminals (2 mice/group) receive water or water and Tween-80, i.e., the vehicle for administration of the test compound. Metrazol (pentylenetetrazol) is dissolved in water (concentration 225 mg of Metrazol/10 ml of solution), and the solution is administered subcutaneously to groups of five animals each at one or more time intervals of 15, 30, 60, 90, or 120 minutes after administration of the test compound. The number of animal alive 15 minutes after treatment with Metrazol is determined and recorded. The following formula is employed to calculate the percent protection against Metrazol lethality. [formula]
A dose range determination is performed by substantially the same procedure as the time response determination. In the dose range determination, five groups of 10 animals per group are employed. This determination is generally reserved for those compounds which protect against lethality by greater than 70% at the screening dose employed.

The test system is the same in assay [3]. The assay can be described thus: supramaximal electroshock (SES) assay. The note with it: Mus musculus, ip, protection against extensor tonus after electroshock, read-out: Anticonvulsant Activity SES ED₅₀. As to the method: as §1
Groups of male mice (Charles River, CD-1) weighing 18 to 30 g are employed in the SES assay. Test compounds are dissolved in distilled water, or if insoluble, suspended in water containing one drop of a surfactant, such as Tween-80. Test compounds are generally administered intraperitoneally at a dose of 10 ml of solution, or suspension, per kg of animal body weight. The output terminals of an A.C. shocker, which delivers 206 volts rms for 300 msec, are placed across the animals' eyes, an electrode paste coating assuring contact of the terminals with the eyes. The test compound is administered and thereafter the subject animals are shocked.
Protection is expressed as normalized percent inhibition relative to vehicle control. [formula] A time response is carried out using 6 animals per group. Animals are tested at 30, 60 and 120 minutes post drug. Additional time periods are tested if indicated by previous tests. A dose range determination is generally reserved for those compounds which inhibit convulsions by greater than about 45-55% at the screening dose employed at the time the test was performed. When the peak activity time has been determined, a dose response is initiated, using 10 animals per group at that time period.
In general terms: The maximal electroshock test induces tonic seizures with an electrical stimulus.

Assay [4] deals with spontaneous hypertensive rat. The assay can be described thus: antihypertensive activity, indirect tail cuff method (SHR). Conditions: 50 mg/kg p.o. for three days, measured on the third day, decrease in mean arterial blood pressure. As to the method:
In this procedure a group of five animals is treated orally for three days with the test compound in relation to a control group of the same number. The drop in blood pressure is measured on the third day following administration. […]

On to `CN(C)CCC=C1c2ccccc2CCc2ccccc21` [Amitriptyline, reference compound], for which, in assay [1], the ED50 was 1.5 mg/kg.

In the case of `CNC(=O)N1CCC(Oc2c(F)c(F)c(F)c(F)c2F)CC1` [Example 1, 1-[(N-Methylamino)carbonyl]-4-(2,3,4,5,6-pentafluorophenoxy)piperidine], the values for the ED50 in assay [2], in assay [3] and in assay [1] were 35.9 mg/kg, 62.5 mg/kg and 11.3 mg/kg, respectively. As for `CN(C)C(=O)N1CCC(Oc2c(F)c(F)c(F)c(F)c2F)CC1` [Example 2, 1-[(N,N-Dimethylamino)carbonyl]-4-(2,3,4,5,6-pentafluorophenoxy)piperidine], the ED50 was 40.4 mg/kg in assay [2] and 50.2 mg/kg in assay [3]. For `CC(=O)N1CCC(Oc2c(F)c(F)c(F)c(F)c2F)CC1` [Example 6, 1-Acetyl-4-(2,3,4,5,6-pentafluorophenoxy)piperidine], the “mm dec. in blood pressure at 50 mg/kg p.o.” value in assay [4] stood at 36 mm Hg.

In the case of `NC(=O)N1CCC(Oc2c(F)c(F)c(F)c(F)c2F)CC1` [Example 7, 1-Aminocarbonyl-4-(2,3,4,5,6-pentafluorophenoxy)piperidine], in assay [4], the “mm dec. in blood pressure at 50 mg/kg p.o.” value came out at 39 mm Hg. Regarding `N=C(N)NCCN1CCCCCCC1` [Guanethidine, reference compound], the “mm dec. in blood pressure at 50 mg/kg p.o.” value in assay [4] stood at 20 mm Hg. Turning to `CCC1(c2ccccc2)C(=O)NC(=O)NC1=O` [Phenobarbital, reference compound], the ED50 was 16.9 mg/kg in assay [2] and 8.4 mg/kg in assay [3].
